We go through two compounds from patent publication US5889029A, “Use of cotinine in treating psychiatric disorders” (priority 1997, dated 1999).

One may read the Ki as the equilibrium dissociation constant of an inhibitor or competing ligand from its target. A higher Ki goes with weaker binding. Usually inhibition stands for the percentage by which the read-out fell short of the control.

Data set [1] concerns the target Glutamic Acid Decarboxylase (GAD). Briefly: Glutamic Acid Decarboxylase (GAD) Enzyme Assay. Format: biochemical. As to conditions: Rat corpus striatal membranes, [14C]L-Glutamic acid. The method, then: Radioimmunoassay studies were conducted with rat corpus striatal membranes using the following method.
Glutamic Acid Decarboxylase (GAD) Enzyme Assay
Rat corpus striatal membranes
Substrate: [^14 C]L-Glutamic acid (30-80 Ci/mmol)
Reactions are incubated in phosphate/mercapoethanol buffer
6.9) for 30 minutes at 37° C. The reaction is
stopped by the addition
of trichloroacetic acid and placement on ice. Radioactive
trapped in phenylethylamine/methanol and quantitated using
scintillation […] in order to ascertain any
of test compounds with the glutamic acid decarboxylase

The target in data set [2] is T1, Benzodiazepine (Peripheral) (Rattus norvegicus, UniProt P16257).
T1 construct: Rat kidney membranes; from tissue; host or cells: rat kidney membranes
The data set is described as follows: Benzodiazepine (Peripheral) Binding Assay. Conditions: read-out: Receptor Binding Activity Percent Inhibition Average (N = 2).

The target in another data set is T2, Serotonin (5HT1A) (Bos taurus, UniProt F6Q2H9).
T2 construct: Bovine hippocampal membranes; from tissue; host or cells: bovine hippocampal membranes
T2 sequence (F6Q2H9 1-422): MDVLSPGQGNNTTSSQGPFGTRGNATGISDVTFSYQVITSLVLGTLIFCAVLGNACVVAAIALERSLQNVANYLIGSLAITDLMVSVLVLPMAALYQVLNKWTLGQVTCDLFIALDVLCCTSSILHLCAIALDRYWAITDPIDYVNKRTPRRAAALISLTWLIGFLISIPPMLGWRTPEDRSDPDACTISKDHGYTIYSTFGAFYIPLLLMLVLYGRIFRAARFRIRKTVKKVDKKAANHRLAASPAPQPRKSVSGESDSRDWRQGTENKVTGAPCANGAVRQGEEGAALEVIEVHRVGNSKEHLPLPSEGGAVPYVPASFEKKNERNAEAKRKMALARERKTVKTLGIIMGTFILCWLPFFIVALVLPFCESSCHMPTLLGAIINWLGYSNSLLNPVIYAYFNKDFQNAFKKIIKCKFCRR
The data set is described as follows: Serotonin (5HT1A) Binding Assay. Conditions: 10^-6 M; Bovine hippocampal membranes; [3H]-8-OH-DPAT 1.0 nM; read-out: Receptor Binding Activity Percent Inhibition Average (N = 2). Also noted: species or system Bovine.

The target in data set [3] is T3, recombinant Rat 5HT7 Clone (Rattus norvegicus, UniProt P32305).
T3 construct: expressed in transfected cells
The data set is described as follows: Serotonin--5HT7 Clone Binding Assay. Conditions: 10^-6 M, [3H]LSD 2.0 nM, read-out: Receptor Binding Activity Percent Inhibition Average (N = 2).

Another data set addresses T4, Histamine (H2) (Cavia porcellus, UniProt P47747).
T4 construct: Guinea pig striatal membranes; from tissue; host or cells: guinea pig striatal membranes
Briefly: Histamine (H2) Binding Assay. Also noted: species or system Guinea pig. Conditions: 10^-6 M; Guinea pig striatal membranes; [3H]Tiotidine 4.0 nM; read-out: Receptor Binding Activity Percent Inhibition Average (N = 2).

The next data set addresses T5, dopamine uptake site (Cavia porcellus, UniProt H0WCX4).
T5 construct: Guinea pig striatal membranes; from tissue; host or cells: guinea pig striatal membranes
Briefly: Dopamine Reuptake Binding Assay. As to conditions: 10^-6 M; Guinea pig striatal membranes; [3H]WIN,35,428 1.0 nM.

The target in another data set is T6, Dopamine (D1 Central) (Rattus norvegicus, UniProt P18901).
T6 construct: Rat striatal membranes; from tissue; host or cells: rat striatal membranes
Briefly: Dopamine (D1 Central) Binding Assay. Conditions: 10^-6 M; Rat striatal membranes; [3H]SCH 23390 0.5 nM.

For data set [4] the following is noted: in the human; in vivo; cited from earlier work.
The target of data set [5] is T7, Inositol Triphosphate (IP3) (Rattus norvegicus, UniProt P29994).
T7 construct: Rat cerebellar membranes; from tissue; host or cells: rat cerebellar membranes
The data set is described as follows: Inositol Triphosphate (IP3) Binding Assay. As to conditions: 10^-6 M; Rat cerebellar membranes; [3H]IP3 4.0 nM; read-out: Receptor Binding Activity Percent Inhibition Average (N = 2). Here is the method: Tissue cultures were prepared using standard laboratory practice for the following tissues: human recombinant M1 clone, human recombinant M2 clone, guinea pig striatal membranes, rat cortical membranes, rat striatal membranes, rat forebrain membranes, bovine hippocampal membranes, guinea pig cerebellar membranes, rat kidney membranes, recombinant rat 5HT7 clone, and rat cerebellar membranes.
Inositol Triphosphate (IP3) Binding Assay
Rat cerebellar membranes
Radioligand: [^3 H]IP3 (10-30 Ci/mmol)
Final ligand concentration - [4.0 nM]
D-myo-inositol 1,4,5-triphosphate
Reactions are carried out in 50 mM TRIS-HCl (pH 8.3)
1 mM EDTA at 0° C. for 10 minutes. The reaction is
rapid vacuum filtration onto glass fiber filters.
onto the filters is determined and compared to control
order to ascertain any interactions of test compound with
inositol triphospate binding site.

The subject of data set [6] is Serotonin (Non-Selective). Briefly: Serotonin (Non-Selective) Binding Assay. As to conditions: 10^-6 M; Rat cortical membranes; [3H]Lysergic acid diethylamide 5.0 nM.
Data set [7] concerns the target T8, Human recombinant M2 clone (Homo sapiens, UniProt P08172).
T8 construct: expressed in transfected cells
T8 sequence (P08172 1-466): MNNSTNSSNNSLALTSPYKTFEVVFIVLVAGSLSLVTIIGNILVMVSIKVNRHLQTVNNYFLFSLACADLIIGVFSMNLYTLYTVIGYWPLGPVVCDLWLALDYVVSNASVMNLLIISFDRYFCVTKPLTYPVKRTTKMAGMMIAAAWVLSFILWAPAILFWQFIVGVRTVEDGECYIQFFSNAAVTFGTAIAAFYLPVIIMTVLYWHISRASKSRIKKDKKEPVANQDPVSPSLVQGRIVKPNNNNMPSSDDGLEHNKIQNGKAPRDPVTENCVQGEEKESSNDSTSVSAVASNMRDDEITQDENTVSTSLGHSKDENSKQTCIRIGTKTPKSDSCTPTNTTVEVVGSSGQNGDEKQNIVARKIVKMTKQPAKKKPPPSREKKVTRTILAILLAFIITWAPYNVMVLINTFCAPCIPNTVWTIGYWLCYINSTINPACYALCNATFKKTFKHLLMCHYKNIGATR
The data set is described as follows: Muscarinic--M2 Clone Binding Assay. As to conditions: read-out: Receptor Binding Activity Percent Inhibition Average (N = 2).

For a further data set, the target named is T9, Opiate (Delta) (Rattus norvegicus, UniProt P33533).
T9 construct: Rat forebrain membranes; from tissue; host or cells: rat forebrain membranes
The data set is described as follows: Opiate (Delta) Binding Assay. As to conditions: read-out: Receptor Binding Activity Percent Inhibition Average (N = 2).

The target in another data set is T10, GABA uptake site (Rattus norvegicus, UniProt P23978).
T10 construct: Rat cortical membranes; from tissue; host or cells: rat cortical membranes
Briefly: biochemical. Conditions: read-out: Receptor Binding Activity Percent Inhibition Average (N = 2).

A further data set deals with T11, Histamine (H3) (Rattus norvegicus, UniProt Q9QYN8).
T11 construct: Rat forebrain membranes; from tissue; host or cells: rat forebrain membranes
The data set is described as follows: Histamine (H3) Binding Assay. Conditions: 10^-6 M; Rat forebrain membranes; [3H]N^a-methylhistamine 0.2 nM; read-out: Receptor Binding Activity Percent Inhibition Average (N = 2).

Data set [8] deals with Glycine (Strychnine Insensitive) (Rattus norvegicus, UniProt P35439). The data set is described as follows: biochemical. Format: binding. As to conditions: read-out: Receptor Binding Activity Percent Inhibition Average (N = 2).
The subject of a further data set is Serotonin (5HT1). The data set is described as follows: Serotonin (5HT1) Binding Assay. As to conditions: 10^-6 M; Rat cortical membranes; [3H]Hydroxytryptamine binoxalate 3.0 nM.
For data set [9], the system named is glutamatergic transmission. As to conditions: application to CNS sites in vitro; cited from earlier work.

T6 sequence (P18901 whole entry): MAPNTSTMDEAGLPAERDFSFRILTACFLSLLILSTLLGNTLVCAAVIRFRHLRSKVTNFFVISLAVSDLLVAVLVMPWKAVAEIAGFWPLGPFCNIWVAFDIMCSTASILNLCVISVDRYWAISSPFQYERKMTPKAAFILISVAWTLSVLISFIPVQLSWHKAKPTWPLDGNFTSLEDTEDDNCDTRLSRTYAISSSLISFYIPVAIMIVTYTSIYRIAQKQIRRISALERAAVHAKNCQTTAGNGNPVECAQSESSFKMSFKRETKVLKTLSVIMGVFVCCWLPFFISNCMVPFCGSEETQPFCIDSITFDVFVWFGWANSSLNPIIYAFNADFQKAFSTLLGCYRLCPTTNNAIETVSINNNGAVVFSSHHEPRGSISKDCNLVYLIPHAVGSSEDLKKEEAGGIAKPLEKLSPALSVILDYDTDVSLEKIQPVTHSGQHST
T3 sequence (P32305 whole entry): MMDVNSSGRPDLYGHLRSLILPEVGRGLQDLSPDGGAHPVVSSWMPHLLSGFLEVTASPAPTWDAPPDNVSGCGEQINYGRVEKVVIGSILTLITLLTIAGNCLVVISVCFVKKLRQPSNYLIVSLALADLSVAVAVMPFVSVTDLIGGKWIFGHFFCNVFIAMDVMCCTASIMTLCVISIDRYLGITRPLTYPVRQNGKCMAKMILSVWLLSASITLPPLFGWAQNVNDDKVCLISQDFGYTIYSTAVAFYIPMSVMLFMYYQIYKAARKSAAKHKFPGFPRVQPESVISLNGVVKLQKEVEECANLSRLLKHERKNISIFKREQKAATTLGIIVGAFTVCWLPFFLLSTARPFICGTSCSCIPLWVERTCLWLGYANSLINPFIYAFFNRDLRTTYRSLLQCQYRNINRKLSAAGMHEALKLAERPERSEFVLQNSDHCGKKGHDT
T1 sequence (P16257 whole entry): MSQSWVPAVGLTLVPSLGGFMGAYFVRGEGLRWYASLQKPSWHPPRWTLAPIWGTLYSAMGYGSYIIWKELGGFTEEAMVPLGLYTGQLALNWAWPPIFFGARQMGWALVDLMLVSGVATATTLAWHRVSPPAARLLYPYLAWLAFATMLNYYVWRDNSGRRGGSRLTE
T7 sequence (P29994 whole entry): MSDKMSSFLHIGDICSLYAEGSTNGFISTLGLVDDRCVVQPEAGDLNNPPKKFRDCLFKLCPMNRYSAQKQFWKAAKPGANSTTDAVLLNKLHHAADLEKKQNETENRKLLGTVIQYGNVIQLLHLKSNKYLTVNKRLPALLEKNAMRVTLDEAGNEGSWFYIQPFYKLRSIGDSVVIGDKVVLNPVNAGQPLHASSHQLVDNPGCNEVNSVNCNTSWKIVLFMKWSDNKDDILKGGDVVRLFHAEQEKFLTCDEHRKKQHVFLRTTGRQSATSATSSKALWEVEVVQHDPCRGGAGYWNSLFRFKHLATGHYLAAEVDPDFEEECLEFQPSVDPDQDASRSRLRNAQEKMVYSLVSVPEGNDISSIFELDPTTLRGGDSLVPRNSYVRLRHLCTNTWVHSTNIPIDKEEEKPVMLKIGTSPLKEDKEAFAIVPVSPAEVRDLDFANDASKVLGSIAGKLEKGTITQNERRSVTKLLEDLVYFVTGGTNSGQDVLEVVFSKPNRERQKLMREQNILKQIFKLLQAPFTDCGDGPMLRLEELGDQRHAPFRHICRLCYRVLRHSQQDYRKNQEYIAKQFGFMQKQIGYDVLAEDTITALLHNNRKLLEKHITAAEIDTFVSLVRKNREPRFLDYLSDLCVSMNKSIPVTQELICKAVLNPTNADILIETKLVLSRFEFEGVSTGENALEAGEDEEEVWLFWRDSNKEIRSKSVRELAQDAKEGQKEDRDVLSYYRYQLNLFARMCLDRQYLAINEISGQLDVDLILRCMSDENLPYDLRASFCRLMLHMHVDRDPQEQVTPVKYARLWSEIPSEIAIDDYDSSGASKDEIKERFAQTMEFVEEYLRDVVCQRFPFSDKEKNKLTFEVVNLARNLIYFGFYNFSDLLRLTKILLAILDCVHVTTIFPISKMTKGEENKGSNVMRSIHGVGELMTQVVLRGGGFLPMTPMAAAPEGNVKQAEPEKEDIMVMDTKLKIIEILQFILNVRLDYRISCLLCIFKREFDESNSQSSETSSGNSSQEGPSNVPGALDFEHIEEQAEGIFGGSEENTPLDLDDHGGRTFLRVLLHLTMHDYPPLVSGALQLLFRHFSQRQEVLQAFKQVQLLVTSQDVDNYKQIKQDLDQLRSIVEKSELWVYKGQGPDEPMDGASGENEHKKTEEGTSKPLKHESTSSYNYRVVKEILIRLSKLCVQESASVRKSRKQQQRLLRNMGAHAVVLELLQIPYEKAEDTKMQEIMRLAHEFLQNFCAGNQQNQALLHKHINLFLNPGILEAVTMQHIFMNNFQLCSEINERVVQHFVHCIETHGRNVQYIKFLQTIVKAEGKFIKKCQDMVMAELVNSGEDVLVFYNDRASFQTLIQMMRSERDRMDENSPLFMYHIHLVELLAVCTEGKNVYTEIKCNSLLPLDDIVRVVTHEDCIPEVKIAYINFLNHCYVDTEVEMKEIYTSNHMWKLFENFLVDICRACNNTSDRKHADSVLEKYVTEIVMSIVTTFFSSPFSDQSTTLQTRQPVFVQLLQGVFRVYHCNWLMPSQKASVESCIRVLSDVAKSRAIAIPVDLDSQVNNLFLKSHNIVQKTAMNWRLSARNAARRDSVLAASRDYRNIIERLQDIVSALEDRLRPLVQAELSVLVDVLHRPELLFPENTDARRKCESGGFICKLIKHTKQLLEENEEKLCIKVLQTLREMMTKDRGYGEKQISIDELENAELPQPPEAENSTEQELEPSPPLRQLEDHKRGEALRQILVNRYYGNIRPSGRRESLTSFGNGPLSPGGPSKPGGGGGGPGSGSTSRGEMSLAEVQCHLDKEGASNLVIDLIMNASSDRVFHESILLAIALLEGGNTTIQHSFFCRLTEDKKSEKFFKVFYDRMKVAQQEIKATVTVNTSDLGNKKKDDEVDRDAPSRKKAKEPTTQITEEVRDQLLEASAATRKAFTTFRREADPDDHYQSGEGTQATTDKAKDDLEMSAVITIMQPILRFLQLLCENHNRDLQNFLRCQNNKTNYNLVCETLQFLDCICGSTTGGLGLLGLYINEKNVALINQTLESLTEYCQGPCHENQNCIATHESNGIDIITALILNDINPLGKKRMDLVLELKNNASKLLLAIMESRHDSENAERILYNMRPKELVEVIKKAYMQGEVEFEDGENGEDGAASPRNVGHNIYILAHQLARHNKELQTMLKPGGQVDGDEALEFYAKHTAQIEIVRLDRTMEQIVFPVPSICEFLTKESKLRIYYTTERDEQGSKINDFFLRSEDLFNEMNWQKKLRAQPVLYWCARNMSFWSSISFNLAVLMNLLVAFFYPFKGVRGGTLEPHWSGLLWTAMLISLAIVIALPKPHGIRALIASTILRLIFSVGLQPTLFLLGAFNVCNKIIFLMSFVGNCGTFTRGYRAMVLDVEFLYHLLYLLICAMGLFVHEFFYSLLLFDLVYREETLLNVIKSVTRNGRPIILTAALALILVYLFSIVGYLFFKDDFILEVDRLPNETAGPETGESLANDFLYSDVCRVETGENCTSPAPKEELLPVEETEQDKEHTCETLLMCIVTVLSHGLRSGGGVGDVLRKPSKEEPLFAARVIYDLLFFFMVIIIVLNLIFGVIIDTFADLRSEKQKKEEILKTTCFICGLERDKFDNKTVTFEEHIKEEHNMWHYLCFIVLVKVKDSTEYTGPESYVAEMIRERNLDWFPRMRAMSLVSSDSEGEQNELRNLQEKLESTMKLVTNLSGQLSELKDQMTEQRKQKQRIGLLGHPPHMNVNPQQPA
T11 sequence (Q9QYN8 whole entry): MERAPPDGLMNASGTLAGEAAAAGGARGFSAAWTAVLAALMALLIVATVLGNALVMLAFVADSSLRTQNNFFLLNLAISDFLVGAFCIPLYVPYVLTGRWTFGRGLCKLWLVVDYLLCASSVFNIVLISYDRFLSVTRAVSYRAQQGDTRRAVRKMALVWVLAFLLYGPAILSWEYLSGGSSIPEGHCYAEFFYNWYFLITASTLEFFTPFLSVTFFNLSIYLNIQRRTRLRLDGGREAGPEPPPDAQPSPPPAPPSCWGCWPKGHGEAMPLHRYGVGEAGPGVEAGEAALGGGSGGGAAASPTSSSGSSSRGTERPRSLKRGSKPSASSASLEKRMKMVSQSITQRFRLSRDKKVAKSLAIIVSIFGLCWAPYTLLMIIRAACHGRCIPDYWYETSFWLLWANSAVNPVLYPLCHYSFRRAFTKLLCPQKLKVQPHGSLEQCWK
T4 sequence (P47747 whole entry): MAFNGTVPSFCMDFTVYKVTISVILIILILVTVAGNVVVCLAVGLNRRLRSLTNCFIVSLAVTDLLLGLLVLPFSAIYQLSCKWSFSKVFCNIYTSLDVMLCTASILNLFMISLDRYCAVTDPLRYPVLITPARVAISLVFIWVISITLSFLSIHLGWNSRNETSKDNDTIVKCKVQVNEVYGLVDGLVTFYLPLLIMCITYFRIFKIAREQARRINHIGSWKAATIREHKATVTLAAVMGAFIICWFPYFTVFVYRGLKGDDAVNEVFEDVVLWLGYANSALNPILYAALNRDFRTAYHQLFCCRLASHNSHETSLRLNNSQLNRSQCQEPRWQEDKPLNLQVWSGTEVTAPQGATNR
T9 sequence (P33533 whole entry): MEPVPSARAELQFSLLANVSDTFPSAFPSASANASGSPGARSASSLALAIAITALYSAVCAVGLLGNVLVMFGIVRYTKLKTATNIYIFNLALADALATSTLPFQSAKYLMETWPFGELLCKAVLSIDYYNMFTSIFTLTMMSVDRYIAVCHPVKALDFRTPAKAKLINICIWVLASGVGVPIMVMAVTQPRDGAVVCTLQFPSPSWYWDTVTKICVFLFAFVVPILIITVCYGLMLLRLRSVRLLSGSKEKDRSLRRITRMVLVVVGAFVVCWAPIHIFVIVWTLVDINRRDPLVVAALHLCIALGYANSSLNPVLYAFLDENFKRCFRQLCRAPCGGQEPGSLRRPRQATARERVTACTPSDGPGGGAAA

Consider `NOCC(=O)O` [(Amino-oxy)Acetic Acid], for which the inhibitory constant (Ki) in [1] (reference compound) is 3.55 µM.

Take `CN1CCCC1c1cccnc1` (stereo not drawn) [Nicotine, reference compound]: the inhibition at 1 µM in [2] is 3.1%; at Serotonin (5HT1A) it was 3.3%; in data set [3] it was 8%; at Histamine (H2), 45.9%; in data set [5], 3.2%; in data set [7], 4.4%. Also, the inhibition at 1 µM is 10.1% at Opiate (Delta), 12.1% at GABA uptake site, 13.5% at Histamine (H3) and 1.5% in data set [8]. For the same compound, the “Receptor Binding Activity Percent Inhibition Average (N = 2)” value at dopamine uptake site was 9.2%; on Dopamine (D1 Central), 2.6%; in data set [6], 6.3%; in the data set on Serotonin (5HT1), -1.4%. The half-life entry in data set [4] was “one to two”. Moreover, in data set [9], the “amplitude of the evoked currents” value was “more than doubled”. Besides, the “Percent Inhibition” value in data set [1] (10^-8 M) came out at 40%.
